Results on seven compounds are retold here after ChEMBL document CHEMBL4052721, “Gerontoxanthone B from Maclura cochinchinensis var. gerontogea exhibits anti-inflammatory potential as an aryl hydrocarbon receptor agonist” (Bioorg Med Chem, 2017).

Format in all cases: cell-based
Data set [1] has as its target T1, Aryl hydrocarbon receptor (Homo sapiens, UniProt P35869).
T1 sequence (P35869 whole entry): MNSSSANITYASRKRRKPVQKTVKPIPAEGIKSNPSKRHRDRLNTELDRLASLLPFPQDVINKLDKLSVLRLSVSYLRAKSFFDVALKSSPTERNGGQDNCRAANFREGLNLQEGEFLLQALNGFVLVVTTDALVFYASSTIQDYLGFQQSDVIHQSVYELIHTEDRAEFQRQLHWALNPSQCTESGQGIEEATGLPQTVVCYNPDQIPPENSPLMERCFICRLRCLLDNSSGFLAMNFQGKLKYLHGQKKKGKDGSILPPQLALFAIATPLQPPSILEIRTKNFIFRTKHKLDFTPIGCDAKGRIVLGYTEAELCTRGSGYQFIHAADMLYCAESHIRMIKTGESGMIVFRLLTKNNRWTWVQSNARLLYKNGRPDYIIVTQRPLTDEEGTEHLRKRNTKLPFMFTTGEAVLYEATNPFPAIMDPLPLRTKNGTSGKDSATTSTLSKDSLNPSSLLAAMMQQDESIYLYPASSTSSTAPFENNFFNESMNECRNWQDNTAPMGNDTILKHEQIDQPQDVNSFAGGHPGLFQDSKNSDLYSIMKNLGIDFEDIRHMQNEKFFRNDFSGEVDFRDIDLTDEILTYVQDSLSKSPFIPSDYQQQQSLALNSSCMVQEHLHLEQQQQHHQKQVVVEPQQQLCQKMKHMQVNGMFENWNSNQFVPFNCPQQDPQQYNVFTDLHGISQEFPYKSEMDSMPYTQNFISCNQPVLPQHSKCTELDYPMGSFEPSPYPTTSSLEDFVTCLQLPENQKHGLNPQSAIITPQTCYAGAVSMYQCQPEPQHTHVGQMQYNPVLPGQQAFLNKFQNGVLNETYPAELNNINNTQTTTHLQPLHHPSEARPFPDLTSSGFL
The data set can be described thus: Agonist activity at AhR in human HepG2 cells at 1 to 10 uM after 42 hrs by luciferase reporter gene assay relative to control. A general note: A reporter such as luciferase makes a cellular process visible.

Data set [2] concerns the target T1, Aryl hydrocarbon receptor. The data set can be described thus: Agonist activity at AhR in human HepG2 cells at 10 uM after 42 hrs by luciferase reporter gene assay relative to control. The conditions noted are these: read-out: FC.
Data set [3] addresses T1, Aryl hydrocarbon receptor. Briefly: Agonist activity at AhR in human HepG2 cells after 42 hrs by luciferase reporter gene assay.
In data set [4] the test system is HepG2. The data set can be described thus: Cytotoxicity against human HepG2 cells at 20 uM. The settings on record: hepg2, 20 µM.
The target in data set [5] is T1, Aryl hydrocarbon receptor. The data set can be described thus: Agonist activity at AhR in human HepG2 cells at 2.5 to 10 uM after 42 hrs in presence of AhR antagonist GNF-351 by luciferase reporter gene assay.
The target of data set [6] is T1, Aryl hydrocarbon receptor. Briefly: Agonist activity at AhR in human HepG2 cells at 2.5 to 10 uM after 42 hrs in presence of AhR antagonist 3',4'-DMF by luciferase reporter gene assay.
Data set [7] concerns the target T1, Aryl hydrocarbon receptor. Briefly: Agonist activity at AhR in human HepG2 cells at 2.5 to 10 uM after 42 hrs in presence of AhR antagonist CH-223191 by luciferase reporter gene assay.
Data set [8] deals with T1, Aryl hydrocarbon receptor. The data set can be described thus: Agonist activity at AhR in human HuH7 cells assessed as reduction in IL-1beta induced increase in SAA1 mRNA level at 10 uM pretreated for 20 hrs followed by Il-1beta addition measured after 4 hrs by qRT-PCR analysis.
The test system of data set [9] is HepG2. The data set can be described thus: Cytotoxicity against human HepG2 cells at 1 uM. The settings on record: hepg2, 1 µM.
Data set [10] deals with T1, Aryl hydrocarbon receptor. The data set can be described thus: Agonist activity at AhR in human HepG2 cells at 5 to 20 nM after 42 hrs in presence of AhR antagonist GNF-351 by luciferase reporter gene assay.
Data set [11] addresses T1, Aryl hydrocarbon receptor. Briefly: Agonist activity at AhR in human HepG2 cells at 5 to 20 nM after 42 hrs in presence of AhR antagonist 3',4'-DMF by luciferase reporter gene assay.
Data set [12] deals with T1, Aryl hydrocarbon receptor. The data set can be described thus: Agonist activity at AhR in human HuH7 cells assessed as reduction in IL-1beta induced increase in SAA1 mRNA level at 10 nM pretreated for 20 hrs followed by Il-1beta addition measured after 4 hrs by qRT-PCR analysis. The conditions noted are these: 0.01 µM. A general note: In qPCR the cycle at which signal appears reflects the starting amount.

Where only a bound is given, the exact number is not on record here.

With `CC(C)=CCc1c(O)cc(O)c2c(=O)c3c(CC=C(C)C)c(O)ccc3oc12` [GERONTOXANTHONE H], the “fold change (FC)” value in data set [1] is listed as “>= 2”.
Take `CC(C)=CCc1c(O)ccc2oc3c4c(cc(O)c3c(=O)c12)OC(C)(C)C=C4`: the fold induction at 10 µM in data set [2] was no less than 2.
On to `C=CC(C)(C)c1c(O)cc2oc3c(O)c4c(cc3c(=O)c2c1O)C=CC(C)(C)O4` [GERONTOXANTHONE B], for which the “fold change (FC)” value in data set [1] was “>= 2”. For the same compound, the Activity entry in data set [3] is “Dose-dependent effect”; in the data set on HepG2 [4], “Toxic”; in data set [5] it was “Not Active”; in data set [6], “Not Active”; in data set [7], “Active”; in [8] it was “Active”.
As to `CC1Oc2cc3oc4c(O)c5c(cc4c(=O)c3c(O)c2C1(C)C)C=CC(C)(C)O5` (stereo unspecified) [GERONTOXANTHONE A], the “fold change (FC)” value in [1] is “>= 2”. Further, the Activity entry with HepG2 [9] is “Toxic”.
Regarding `Clc1cc2c(cc1Cl)Oc1cc(Cl)c(Cl)cc1O2` [2,3,7,8-TETRACHLORODIBENZO-P-DIOXIN], the Activity result is “Not Active” in data set [10], “Not Active” in [11] and “Active” in data set [12].
As for `C=CC(C)(C)c1c(O)c(CC=C(C)C)c(O)c2c(=O)c3ccc(O)c(O)c3oc12` [GERONTOXANTHONE I], the fold induction at 10 µM in data set [2] was no less than 2.
On to `C=CC(C)(C)c1c(O)cc2oc3c(O)c(OCC=C(C)C)ccc3c(=O)c2c1O`, for which the “fold change (FC)” value in data set [1] is given as “>= 2”.
